According to PMC8876511, “Two out of Three Musketeers Fight against Cancer: Synthesis, Physicochemical, and Biological Properties of Phosphino Cu^I, Ru^II, Ir^III Complexes” (Pharmaceuticals, 2022):

Key:
[1] = Solubility (qualitative); type: physicochemical
[2] = tested on: A549 cells; test: MTT cytotoxicity assay, A549; type: cell-based, human
[3] = tested on: PANC-1 cells; test: MTT cytotoxicity assay, PANC-1; type: cell-based, human
Method: (§1) Moreover, to investigate the activity of synthesized complexes as potential anticancer agents, their cytotoxicity toward a series of human cancer cell lines and a non-cancer cell line (HaCaT) was evaluated using the MTT assay. […] In addition, we also determined the cytotoxic activity of free ligands toward selected cancer cells. […] However, this effect depends on the cell line. […] The best values of cytotoxic activity of compounds have been obtained after 72 h of cell incubation. Additionally, synthesized complexes had high sensitivity to A549 cells, so this cell line was selected as the research subject for antitumor activity.
(§2) Since most of the studied compounds are insoluble in aqueous media (Dulbecco’s Modified Eagle’s Medium or minimum essential medium (MEM, Corning), therefore, they needed to be pre-dissolved in DMSO for biological tests. DMSO concentration was kept below 1% in each tested concentration of each compound. Cytotoxicity was assessed by MTT assay performed according to the protocols described previously in the following experimental approaches: 6 h + 24 h, 24 h + 24 h, and 72 h + 24 h. In brief, 5×10^3 per well (0.2 mL) in the two first approaches, while 1×10^4 cells in the case of longer incubation time were seeded in 96-well flat-bottom microtiter plate, were incubated with the tested complexes at various ranges of concentrations. After an appropriate incubation time of 6, 24, or 72 h, the cells were washed thee time with PBS and fresh medium was applied for a further 24 h in each approach. Various compound concentrations (dilutions in proper medium supplemented with 1% FBS) were tested in five replicates and repeated at least three times. Determined values of IC50 (concentration of a drug required to inhibit the growth of 50% of the cells) are given as mean + S.D. (Standard Deviation). IC50 values were determined, from the plots of cell viability in the presence of various concentrations of each compound by matching dose–response curves and using the Origin 9.0 software. Furthermore, post-treatment survival assessment of the treated cells was analyzed under an inverted fluorescence microscope (Olympus IC51, Japan) with an excitation filter 470/20 nm. For this, cells were stained with two versatile fluorescence dyes: fluorescein diacetate (FDA, 5 mg/mL) and propidium iodide (PI, 5 mg/mL) in standard conditions in the dark for 20 min. Before visualization, dyes were removed and cells were washed with PBS twice.

[4] = tested on: MCF-7 cells; test: MTT cytotoxicity assay, MCF-7; type: cell-based, human
Method: as §1
(§3) MCF7 cell line (human breast adenocarcinoma, morphology: epithelial-like, ATCC: HTB-22) and A549 cell line (human lung adenocarcinoma, morphology: epithelial, ATCC: CCL-185); HaCaT (human keratinocyte) were cultured in Dulbecco’s Modified Eagle’s Medium (DMEM, Corning, Poland) with phenol red, supplemented with 10% fetal bovine serum (FBS) and with 1% streptomycin/penicillin. Du-145 cell line (human prostate carcinoma); derived from metastatic site: brain was cultured in minimum essential medium (MEM, Corning) with only 10% fetal bovine serum (FBS). Cultures were incubated at 37 °C under a humidified atmosphere containing 5% CO2. Cells were passaged using a solution containing 0.05% trypsin and 0.5 mM EDTA. All media and other ingredients were purchased from ALAB, Poland.
as §2, with “Cytotoxicity was assessed by MTT assay performed according to the protocols described previously in the following experimental approaches: 6 h + 24 h, 24 h + 24 h, and 72 h + 24 h.” left out, “After an appropriate incubation time of 6, 24, or 72 h, the cells were washed thee time with PBS and fresh medium was applied for a further 24 h in each approach.” left out

[5] = tested on: A549 cells; test: MTT cytotoxicity assay, A549; type: cell-based, human; remark: listed apart in the source
Method: as §1, §3, §2

[6] = Partition coefficient, shake-flask method (n-octanol/PBS); type: physicochemical
Method: The partition coefficient was determined by the shake-flask method. A small amount of compound was dissolved in 5 mL PBS-saturated n-octanol. The sample was sonicated until all the compound was dissolved. Next, 5 mL of PBS saturated with n-octanol was added and the experiment proceeded as before. The resulting mixture was vortexed for 30 min in horizontal position. The sample was centrifuged for 2 min at 3700 rpm to obtain a phase separation. Next, 2 mL of each phase was taken. The next steps were a 5 min sonication and measurement of absorption spectra of the obtained solutions. The calibration curve was prepared in order to determine the concentration of the tested compounds in individual solutions. It was made using the absorption intensity of the compounds in series dilution solutions in PBS saturated with octanol or octanol saturated with PBS in the concentration range c = 1–100 nM.

[7] = tested on: HaCaT cells; test: MTT cytotoxicity assay, HaCaT (non-cancer); type: cell-based, human; settings: 48 h
[8] = tested on: Du-145 cells; test: MTT cytotoxicity assay, Du-145; type: cell-based, human
Method: as §1, §3
as §2, with “Cytotoxicity was assessed by MTT assay performed according to the protocols described previously in the following experimental approaches: 6 h + 24 h, 24 h + 24 h, and 72 h + 24 h.” left out, “After an appropriate incubation time of 6, 24, or 72 h, the cells were washed thee time with PBS and fresh medium was applied for a further 24 h in each approach.” left out

[9] = tested on: PANC-1 cells; test: MTT cytotoxicity assay, PANC-1; type: cell-based, human; remark: listed apart in the source
[10] = tested on: HaCaT cells; test: MTT cytotoxicity assay, HaCaT (non-cancer); type: cell-based, human
Method: as §1, §3, §2

[11] = Stability towards atmospheric oxygen (UV-Vis); type: physicochemical
Method: Oxidation of copper(I) to copper(II) was observed within 12 h using UV-Vis spectroscopy (Figure 1) that was additionally conformed by color of the copper(I) inorganic compound solution changing from transparent to green. Additionally, oxidation of phosphines ligands (1, 2) was observed. It is worth mentioning that copper(I) ions can easily undergo oxidation processes. The instability of copper(I) complexes prevented us from evaluating their biological activity.

Row | Compound | solubility in mixture of H2O:DMSO (100:1) [1] | IC50 ([2]; 48 h) [µM] | IC50 ([3]; 24 h) [µM] | IC50 ([3]; 72 h) [µM] | IC50 ([4]; 24 h) [µM] | IC50 ([4]; 48 h) [µM] | IC50 ([4]; 72 h) [µM] | IC50 ([5]; 24 h) [µM] | IC50 ([5]; 72 h) [µM] | IC50 [7] [µM] | IC50 ([8]; 24 h) [µM] | IC50 ([8]; 48 h) [µM] | IC50 ([8]; 72 h) [µM] | IC50 ([9]; 48 h) [µM] | IC50 ([10]; 24 h) [µM] | IC50 ([10]; 72 h) [µM] | IC50 ([2]; Homo sapiens, A549, 48 h) [µM] | IC50 ([3]; Homo sapiens, PANC-1, 72 h) [µM] | IC50 ([4]; Homo sapiens, MCF7, 48 h) [µM] | IC50 ([4]; Homo sapiens, MCF7, 72 h) [µM] | also measured
1 | CC#N.CC#N.CCN(CC)CP(c1ccccc1)c1ccccc1.CCN(CC)CP(c1ccccc1)c1ccccc1.F[B-](F)(F)F.[Cu+] [1c, [Cu(NCCH3)2(Ph2PCH2N(CH2CH3)2)2]^+BF4^−] | well soluble |  |  |  |  |  |  |  |  |  |  |  |  |  |  |  |  |  |  |  | 
2 | CCCCN(CCCC)C[P+](c1ccccc1)(c1ccccc1)[Ir-3]([Cl])([Cl])[C]1(C)C(C)=C(C)C(C)=C1C [2a, Ir(η^5-Cp*)Cl2Ph2PCH2N(CH2CH2CH2CH3)2] |  | 61 ± 3 | 106 ± 5 | 85 ± 16 | 125 ± 15 | 189 ± 20 | 56 ± 6 | 79 ± 6 | 16 ± 3 | 420 ± 12 | 69 ± 6 | 69 ± 8 | 13 ± 2 | 198 ± 20 | 559 ± 25 | 302 ± 22 |  |  |  |  | Experimental LogP (logPo/w) [6]: 4.0
3 | CC#N.CC#N.CCCCN(CCCC)CP(c1ccccc1)c1ccccc1.CCCCN(CCCC)CP(c1ccccc1)c1ccccc1.F[B-](F)(F)F.[Cu+] [2c, [Cu(NCCH3)2(Ph2PCH2N(CH2CH2CH2CH3)2)2]^+BF4^−] | well soluble |  |  |  |  |  |  |  |  |  |  |  |  |  |  |  |  |  |  |  | 
4 | N.N.[Cl][Pt][Cl] [Cisplatin, reference compound] |  | 66 ± 9 | 166 ± 20 | 79 ± 5 | 176 ± 5 | 151 ± 6 | 64 ± 4 | 70 ± 8 | 11 ± 3 | 362 ± 4 | 85 ± 7 | 81 ± 8 | 50 ± 2 | 131 ± 7 | 400 ± 3 | 102 ± 2 |  |  |  |  | 
5 | CCN(CC)CP(c1ccccc1)c1ccccc1 [compound 1, Ph2PCH2N(CH2CH3)2] |  |  |  |  |  |  |  |  |  |  |  |  |  |  |  |  | 47 ± 5 | 185 ± 12 | 149 ± 13 | 192 ± 20 | IC50 ([3]; Homo sapiens, PANC-1, 24 h): 426 ± 7 µM; IC50 ([4]; Homo sapiens, MCF7, 24 h): 458 ± 11 µM; IC50 ([5]; Homo sapiens, A549, 24 h): 620 ± 9 µM; IC50 ([5]; Homo sapiens, A549, 72 h): 183 ± 12 µM; IC50 ([7]; Homo sapiens, HaCaT): 458 ± 20 µM; sensitivity to oxidation in solution [11]: extremely sensitive to oxidation in solution; IC50 ([8]; Homo sapiens, DU-145, 24 h): 203 ± 19 µM; IC50 ([8]; Homo sapiens, DU-145, 72 h): 86 ± 6 µM; solubility in H2O [1]: moderately; IC50 ([10]; Homo sapiens, HaCaT, 24 h): 646 ± 20 µM; IC50 ([10]; Homo sapiens, HaCaT, 72 h): 490 ± 12 µM
6 | CCCCN(CCCC)CP(c1ccccc1)c1ccccc1 [compound 2, Ph2PCH2N(CH2CH2CH2CH3)2] |  |  |  |  |  |  |  |  |  |  |  |  |  |  |  |  | 72 ± 6 | 142 ± 20 | 125 ± 20 | 285 ± 11 | IC50 ([3]; Homo sapiens, PANC-1, 24 h): 386 ± 6 µM; IC50 ([4]; Homo sapiens, MCF7, 24 h): 355 ± 13 µM; IC50 ([5]; Homo sapiens, A549, 24 h): 569 ± 11 µM; IC50 ([5]; Homo sapiens, A549, 72 h): 158 ± 11 µM; IC50 ([7]; Homo sapiens, HaCaT): 420 ± 11 µM; sensitivity to oxidation in solution [11]: extremely sensitive to oxidation in solution; IC50 ([8]; Homo sapiens, DU-145, 24 h): 185 ± 12 µM; IC50 ([8]; Homo sapiens, DU-145, 48 h): 54 ± 8 µM; IC50 ([8]; Homo sapiens, DU-145, 72 h): 57 ± 4 µM; IC50 ([9]; Homo sapiens, PANC-1, 48 h): 158 ± 23 µM; solubility in H2O [1]: moderately; IC50 ([10]; Homo sapiens, HaCaT, 24 h): 556 ± 13 µM; IC50 ([10]; Homo sapiens, HaCaT, 72 h): 448 ± 25 µM
7 | CCCCNCCCC [dibutylamine] |  |  |  |  |  |  |  |  |  |  |  |  |  |  |  |  | 387 ± 25 | > 1000 | 226 ± 20 | > 1000 | IC50 ([5]; Homo sapiens, A549, 72 h): > 1000 µM; IC50 ([7]; Homo sapiens, HaCaT): 445 ± 25 µM; IC50 ([8]; Homo sapiens, DU-145, 48 h): 103 ± 7 µM; IC50 ([8]; Homo sapiens, DU-145, 72 h): > 1000 µM; IC50 ([9]; Homo sapiens, PANC-1, 48 h): 258 ± 6 µM; IC50 ([10]; Homo sapiens, HaCaT, 72 h): > 1000 µM
8 | CCNCC [diethylamine] |  | 425 ± 38 |  | > 1000 |  | 352 ± 25 | > 1000 |  | > 1000 | 545 ± 33 |  | 126 ± 12 | > 1000 | 305 ± 13 |  | > 1000 |  |  |  |  | 
9 | Ru(η^6-p-cymene)Cl2Ph2PCH2N(CH2CH2CH2CH3)2 [2b] | well soluble | 387 ± 25 | 126 ± 6 | 112 ± 18 | 226 ± 20 | 226 ± 20 | 121 ± 20 | 81 ± 4 | 14 ± 2 | 445 ± 25 | 102 ± 6 | 103 ± 7 | 17 ± 3 | 258 ± 6 | 545 ± 13 | 347 ± 25 |  |  |  |  | Experimental LogP (logPo/w) [6]: 3.84
